Data set [1] has as its system Rat Liver. Particulars: ref ToxRefDB, cited from earlier work.
In data set [2] the test system is Mouse Liver. To be noted: ref ToxRefDB, cited from earlier work.
The test system of data set [3] is Rat Liver. To be noted: ref ToxRefDB, cited from earlier work. The source holds these as a separate data set.
For data set [4], the system named is Rat Liver. To be noted: ref ToxRefDB, cited from earlier work. The source holds these as a separate data set.
The subject of data set [5] is Mouse Liver. Particulars: ref ToxRefDB, cited from earlier work. This is another data set of the same source.
The test system of data set [6] is CYP3A4. As to the kind of experiment: CLZD_CYP3A4: Change in expression of CYP3A4 (primary human hepatocytes). The class given is cell-based. Particulars: 24 hr. The method, then:
(§1) This is a collection of multiplexed gene expression assays focused on Phase I and II xenobiotic metabolizing enzymes and transporters. Human primary cell cultures were treated with chemicals at 5 concentrations (0.004-40 [drawing 42] M) for 6, 24 and 48 hr. Concentration- and time-response profiles of chemicals were measured by the expression of key nuclear receptor target genes, activities of CYP1A enzymes (EROD), and cell morphology. Fourteen gene targets were monitored by quantitative nuclease protection assay including: six representative cytochrome P-450 genes, four hepatic transporters, three Phase II conjugating enzymes, and one endogenous metabolism gene involved in cholesterol synthesis. The target genes associated with nuclear receptor pathways are as follows: [drawing 43] and [drawing 44] with [drawing 45]; [drawing 46] , [drawing 47] , [drawing 48] , [drawing 49] , [drawing 50] and [drawing 51] with [drawing 52]; [drawing 53] , [drawing 54] , [drawing 55] and [drawing 56] with [drawing 57]; [drawing 58] with [drawing 59]; and [drawing 60] with [drawing 61] . Assays were run in primary human hepatocyte cultures by CellzDirect Invitrogen Inc. (Durham, NC), in collaboration with EPA.
(§2) Multiplexed Gene Expression in Human Primary Hepatocytes: This is a collection of multiplexed gene expression assays focused on Phase I and II metabolic enzymes and transporters. […] Fourteen gene targets were monitored by quantitative nuclease protection assay: six representative cytochrome P450 genes, four hepatic transporters, three Phase II conjugating enzymes, and one endogenous metabolism gene involved in cholesterol synthesis. Cells were exposed at 5 concentrations (0.004-40 µM) for 6, 24 or 48 hr. Gene targets are sentinels for five nuclear receptor signaling pathways: AhR, CAR, PXR, FXR, and PPARα. All gene are associated with nuclear receptor pathways: CYP1A1 and CYP1A2 with AHR; ABCB1, ABCG2, CYP2B6, CYP2C9, CYP2C19 and UGT1A1 with CAR; CYP3A4, GSTA2, SLCO1B1 and SULT2A1 with PXR; HMGCS2 with PPARA; and ABCB11 with FXR. […] Detailed description of the methods, data and analysis methods for this dataset will be presented in a separate publication.

Data set [7] deals with CYP2B6. As to the kind of experiment: CLZD_CYP2B6: Change in expression of CYP2B6 (primary human hepatocytes). The data set is classed as cell-based. Particulars: 24 hr. The method, then:
as §1, §2

In data set [8] the target is T1, PXR (NR1I2) (Homo sapiens, UniProt O75469).
T1 sequence (O75469 1-434): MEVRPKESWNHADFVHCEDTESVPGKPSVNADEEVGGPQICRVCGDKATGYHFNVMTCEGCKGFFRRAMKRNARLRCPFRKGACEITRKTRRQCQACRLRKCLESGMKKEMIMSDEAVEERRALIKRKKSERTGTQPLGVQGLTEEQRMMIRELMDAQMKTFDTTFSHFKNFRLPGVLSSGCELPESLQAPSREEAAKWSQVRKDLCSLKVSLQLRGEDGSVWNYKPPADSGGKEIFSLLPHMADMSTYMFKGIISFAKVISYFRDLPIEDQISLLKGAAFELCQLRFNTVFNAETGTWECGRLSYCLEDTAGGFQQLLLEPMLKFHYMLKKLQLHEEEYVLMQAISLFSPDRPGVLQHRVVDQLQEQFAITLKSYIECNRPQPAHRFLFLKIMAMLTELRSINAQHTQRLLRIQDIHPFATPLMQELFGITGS
As to the kind of experiment: ATG_PXRE_CIS: Factorial reporter gene assay (HepG2). The data set is classed as cell-based. Further details: endogenous in cells; host or cells: HepG2. Here is the method:
(§3) A multiple reporter transcription unit (MRTU) library consisting of 48 transcription factor binding sites was transfected into the HepG2 human liver hepatoma cell line. In addition to the cis-acting reporter genes (CIS), a modification of the approach was used to generate a trans-system (TRANS) with a mammalian one-hybrid assay consisting of an additional 25 MRTU library reporting the activity of nuclear receptor super-family members. […] These assays were performed by Attagene Inc. (Morrisville NC) under contract to EPA.
(§4) In addition to the cis-acting reporter genes (CIS), a modification of the approach was used to generate a trans-system (TRANS) with a mammalian one-hybrid assay consisting of an additional 25 MRTU library reporting the activity of nuclear receptor super-family members. […] Chemicals were then tested in the CIS and TRANS assays at seven concentrations starting at the MTC and followed by three-fold serial dilutions. These assays were performed by Attagene Inc. (Morrisville NC) under contract to EPA. Detailed description of the methods, data and analysis methods for this dataset will be presented in a separate publication.
In general terms: In a reporter assay the amount or activity of a reporter protein is the signal.

In data set [9] the test system is CYP1A2. As to the kind of experiment: CLZD_CYP1A2: Change in expression of CYP1A2 (primary human hepatocytes). The class given is cell-based. To be noted: 24 hr. Here is the method: as §1, §2
In data set [10] the target is T2, PPARG (peroxisome proliferator-activated receptor gamma) (Homo sapiens, UniProt P37231).
T2 construct: expressed in transfected cells; host or cells: HepG2
T2 sequence (P37231 1-505): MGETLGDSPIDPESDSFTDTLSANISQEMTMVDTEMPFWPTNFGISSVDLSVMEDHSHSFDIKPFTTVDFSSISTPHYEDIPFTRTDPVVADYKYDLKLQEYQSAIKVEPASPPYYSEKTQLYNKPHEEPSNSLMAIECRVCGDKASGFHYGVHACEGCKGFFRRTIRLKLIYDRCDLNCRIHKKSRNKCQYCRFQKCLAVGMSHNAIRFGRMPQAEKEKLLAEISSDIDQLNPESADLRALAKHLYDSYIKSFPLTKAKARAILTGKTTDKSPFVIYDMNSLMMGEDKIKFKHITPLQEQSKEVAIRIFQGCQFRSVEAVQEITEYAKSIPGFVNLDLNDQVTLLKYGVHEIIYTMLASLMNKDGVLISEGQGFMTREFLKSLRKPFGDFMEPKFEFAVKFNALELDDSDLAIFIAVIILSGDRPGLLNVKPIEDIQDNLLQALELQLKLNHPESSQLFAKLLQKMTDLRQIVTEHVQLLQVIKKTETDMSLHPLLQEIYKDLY
As to the kind of experiment: ATG_PPARg_TRANS: Factorial reporter gene assay (HepG2). The data set is classed as cell-based. Here is the method: as §3, §4

[11] abbreviates: rat chronic study, liver, coded 6 / 0, code not explained in table.
Where [12] appears, read: mouse chronic study, liver, coded 6 / Inf, code not explained in table.

Where two headings read alike, the source gives them in different places.

For the compound `COC(=O)c1c(C(F)F)nc(C(F)(F)F)c(C2=NCCS2)c1CC(C)C` [chemical 297], the CHR_Rat_Liver_3_NeoplasticLesion in [1] (setting [11]) was 0. For the same compound, the CHR_Mouse_Liver_2_PreneoplasticLesion in data set [2] (setting [12]) was 6. Besides, in data set [3] (setting [11]), the CHR_Rat_Liver_1_AnyLesion was 6. Besides, in data set [4] (setting [11]), the CHR_Rat_Liver_2_PreneoplasticLesion was 0. The CHR_Mouse_Liver_1_AnyLesion in [5] (setting [12]) is 6.
Consider `O=C(Nc1ccccc1)Nc1cnns1` [chemical 298], for which the CHR_Rat_Liver_3_NeoplasticLesion in data set [1] (setting [11]) was 0. Moreover, the CHR_Mouse_Liver_2_PreneoplasticLesion in data set [2] (setting [12]) is 6. Moreover, in [3] (setting [11]), the CHR_Rat_Liver_1_AnyLesion was 0. Further, the CHR_Rat_Liver_2_PreneoplasticLesion in data set [4] (setting [11]) is on record as 0. In [5] (setting [12]), the CHR_Mouse_Liver_1_AnyLesion is listed as 6.
As for `COc1nc(C)nc(NC(=O)NS(=O)(=O)c2ccccc2OCCCl)n1` [chemical 307], the CHR_Rat_Liver_3_NeoplasticLesion in data set [1] (setting [11]) is listed as 0. Also, in data set [2] (setting [12]), the CHR_Mouse_Liver_2_PreneoplasticLesion was 6. In addition, the CHR_Rat_Liver_1_AnyLesion in data set [3] (setting [11]) was 0. The CHR_Rat_Liver_2_PreneoplasticLesion in data set [4] (setting [11]) is listed as 0. For the same compound, in data set [5] (setting [12]), the CHR_Mouse_Liver_1_AnyLesion is 6.
In the case of `CCCOC/C(=N\c1ccc(Cl)cc1C(F)(F)F)n1ccnc1` [chemical 315], in data set [1] (setting [11]), the CHR_Rat_Liver_3_NeoplasticLesion was 0. Further, the CHR_Mouse_Liver_2_PreneoplasticLesion in [2] (setting [12]) is 6. The CHR_Rat_Liver_1_AnyLesion in data set [3] (setting [11]) is 6. Besides, the CHR_Rat_Liver_2_PreneoplasticLesion in data set [4] (setting [11]) is 6. The CHR_Mouse_Liver_1_AnyLesion in [5] (setting [12]) is given as 6.
Turning to `COc1cnc(OC)n2nc(NS(=O)(=O)c3c(OCC(F)F)cccc3C(F)(F)F)nc12` [r239], in [1] (rat, chronic study), the CHR_Rat_Liver_3_NeoplasticLesion is given as 0. This compound returned a CLZD_CYP3A4_24 in data set [6] of 4.931. The compound further came in with a CLZD_CYP2B6_24 in data set [7] of 4.844. This compound displayed an ATG_PXRE_CIS in [8] (HepG2) of 4.585. Further, the CHR_Rat_Liver_1_AnyLesion in data set [3] (rat, chronic study) is recorded as 6. The CHR_Rat_Liver_2_PreneoplasticLesion in data set [4] (rat, chronic study) is on record as 0.
In turn, `Cc1nc(N(C)C)nc(OC(=O)N(C)C)c1C` [r247] returned a CLZD_CYP1A2_24 in data set [9] of 5.15. Further, in data set [7], the CLZD_CYP2B6_24 was determined as 5.267. The ATG_PXRE_CIS in data set [8] (HepG2) worked out at 4.301.
As to `COc1nc(C)nc(NC(=O)NS(=O)(=O)c2ccccc2CCC(F)(F)F)n1` [r266], the CHR_Rat_Liver_3_NeoplasticLesion in data set [1] (chronic study, rat liver) was 0. This compound yielded a CLZD_CYP3A4_24 in [6] of 5.037. The same compound gave a CLZD_CYP2B6_24 in [7] of 5.694. The ATG_PXRE_CIS in [8] (HepG2 reporter) was found to be 4.377. The CHR_Rat_Liver_1_AnyLesion in data set [3] (chronic study, rat liver) was 0. In data set [4] (chronic study, rat liver), the CHR_Rat_Liver_2_PreneoplasticLesion was 0. Further, in data set [5] (chronic study, mouse liver), the CHR_Mouse_Liver_1_AnyLesion is 6.
Consider `CC(COc1ccc(Oc2ccccc2)cc1)Oc1ccccn1` (stereo not drawn) [r274], for which the CHR_Rat_Liver_3_NeoplasticLesion in [1] (chronic study, rat liver) was 0. Also, the ATG_PPARg_TRANS in data set [10] (HepG2 reporter) worked out at 4.42. The compound also had a CLZD_CYP3A4_24 in data set [6] of 5.096. The compound also showed a CLZD_CYP2B6_24 in [7] of 5.377. Also, the ATG_PXRE_CIS in data set [8] (HepG2 reporter) stood at 4.886. The CHR_Rat_Liver_1_AnyLesion in data set [3] (chronic study, rat liver) was 0. Besides, the CHR_Rat_Liver_2_PreneoplasticLesion in data set [4] (chronic study, rat liver) is given as 0.
For `CCC/C(=N\OCC)C1=C(O)CC(CC(C)SCC)CC1=O` (stereo not drawn) [r283], the CHR_Rat_Liver_3_NeoplasticLesion in data set [1] (chronic study, rat liver) was 0. For the same compound, in [6], the CLZD_CYP3A4_24 turned out to be 4.556. The CHR_Mouse_Liver_2_PreneoplasticLesion in [2] (chronic study, mouse liver) is on record as 6. Further, the CLZD_CYP2B6_24 in [7] is on record as 5.082. Besides, the ATG_PXRE_CIS in data set [8] (HepG2 reporter) is 4.62. For the same compound, in data set [3] (chronic study, rat liver), the CHR_Rat_Liver_1_AnyLesion is 6. Moreover, the CHR_Rat_Liver_2_PreneoplasticLesion in data set [4] (chronic study, rat liver) is 6. For the same compound, in data set [5] (chronic study, mouse liver), the CHR_Mouse_Liver_1_AnyLesion is recorded as 6.
`CSc1nnc(C(C)(C)C)c(=O)n1N` [row 209]: in data set [1] (chronic rat study, liver), the CHR_Rat_Liver_3_NeoplasticLesion was 0. Further, the CLZD_CYP2B6_24 in data set [7] turned out to be 5.115. Besides, the CHR_Rat_Liver_1_AnyLesion in data set [3] (chronic rat study, liver) was 0. In addition, the CHR_Rat_Liver_2_PreneoplasticLesion in [4] (chronic rat study, liver) is recorded as 0.
With `O=C(Nc1ccc([N+](=O)[O-])cc1Cl)c1cc(Cl)ccc1O` [row 220], in data set [10] (HepG2), the ATG_PPARg_TRANS is recorded as 6.252. In data set [8] (HepG2), this compound displayed an ATG_PXRE_CIS of 6.367.

(Values after paper PMC3038857, “Using Nuclear Receptor Activity to Stratify Hepatocarcinogens” (PLoS ONE, 2011).)
